Laboratory results reported in ChEMBL document CHEMBL4007384, “Synthesis and optimization of furano[3,2-d]pyrimidines as selective spleen tyrosine kinase (Syk) inhibitors” (Bioorg Med Chem Lett, 2016).

Columns and labels:
Insulin receptor = Insulin receptor (Homo sapiens, UniProt P06213); assay: Inhibition of INSR (unknown origin) after 60 mins by TR-FRET assay
[1] = molecular target: Tyrosine-protein kinase Lck (Homo sapiens, UniProt P06239); assay: Inhibition of Lck (unknown origin) after 60 mins by TR-FRET assay
[2] = molecular target: T1, Serine/threonine-protein kinase TAO2 (Homo sapiens, UniProt Q9UL54); assay: Inhibition of TAOK2 (unknown origin) after 60 mins by TR-FRET assay
T1 sequence (Q9UL54 whole entry): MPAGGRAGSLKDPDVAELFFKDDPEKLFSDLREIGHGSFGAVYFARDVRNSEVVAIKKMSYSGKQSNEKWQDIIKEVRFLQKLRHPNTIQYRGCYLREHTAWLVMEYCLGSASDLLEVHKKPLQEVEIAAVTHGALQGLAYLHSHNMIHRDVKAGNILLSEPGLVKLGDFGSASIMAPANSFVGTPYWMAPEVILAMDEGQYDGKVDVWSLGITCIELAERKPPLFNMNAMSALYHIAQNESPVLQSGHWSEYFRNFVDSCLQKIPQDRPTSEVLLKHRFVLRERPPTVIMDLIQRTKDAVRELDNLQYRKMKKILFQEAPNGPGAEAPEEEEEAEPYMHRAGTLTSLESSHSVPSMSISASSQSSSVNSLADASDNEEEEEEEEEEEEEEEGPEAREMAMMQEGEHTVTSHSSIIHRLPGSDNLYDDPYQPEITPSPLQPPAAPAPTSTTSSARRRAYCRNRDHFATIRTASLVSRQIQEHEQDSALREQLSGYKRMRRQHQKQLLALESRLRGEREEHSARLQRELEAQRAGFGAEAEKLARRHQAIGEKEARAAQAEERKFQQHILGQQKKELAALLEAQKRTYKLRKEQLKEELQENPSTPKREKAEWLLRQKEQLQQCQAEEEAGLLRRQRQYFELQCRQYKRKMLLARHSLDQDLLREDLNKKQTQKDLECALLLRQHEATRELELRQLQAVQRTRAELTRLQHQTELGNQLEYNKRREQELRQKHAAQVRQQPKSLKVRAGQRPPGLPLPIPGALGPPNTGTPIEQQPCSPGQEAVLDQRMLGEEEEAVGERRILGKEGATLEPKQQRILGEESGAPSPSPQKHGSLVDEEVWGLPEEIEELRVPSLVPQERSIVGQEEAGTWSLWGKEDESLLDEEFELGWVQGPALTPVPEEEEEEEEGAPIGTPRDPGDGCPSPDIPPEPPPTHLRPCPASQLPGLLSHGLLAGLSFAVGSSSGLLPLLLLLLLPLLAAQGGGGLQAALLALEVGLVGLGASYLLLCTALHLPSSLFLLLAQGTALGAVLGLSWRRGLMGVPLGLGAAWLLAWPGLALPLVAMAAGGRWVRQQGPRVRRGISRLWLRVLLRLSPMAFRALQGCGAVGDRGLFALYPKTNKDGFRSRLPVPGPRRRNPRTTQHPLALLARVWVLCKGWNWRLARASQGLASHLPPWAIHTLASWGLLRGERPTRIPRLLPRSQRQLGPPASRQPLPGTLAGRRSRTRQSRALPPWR

[3] = molecular target: T2, Serine/threonine-protein kinase D3 (Homo sapiens, UniProt O94806); assay: Inhibition of Prkcn (unknown origin) after 60 mins by TR-FRET assay
T2 sequence (O94806 whole entry): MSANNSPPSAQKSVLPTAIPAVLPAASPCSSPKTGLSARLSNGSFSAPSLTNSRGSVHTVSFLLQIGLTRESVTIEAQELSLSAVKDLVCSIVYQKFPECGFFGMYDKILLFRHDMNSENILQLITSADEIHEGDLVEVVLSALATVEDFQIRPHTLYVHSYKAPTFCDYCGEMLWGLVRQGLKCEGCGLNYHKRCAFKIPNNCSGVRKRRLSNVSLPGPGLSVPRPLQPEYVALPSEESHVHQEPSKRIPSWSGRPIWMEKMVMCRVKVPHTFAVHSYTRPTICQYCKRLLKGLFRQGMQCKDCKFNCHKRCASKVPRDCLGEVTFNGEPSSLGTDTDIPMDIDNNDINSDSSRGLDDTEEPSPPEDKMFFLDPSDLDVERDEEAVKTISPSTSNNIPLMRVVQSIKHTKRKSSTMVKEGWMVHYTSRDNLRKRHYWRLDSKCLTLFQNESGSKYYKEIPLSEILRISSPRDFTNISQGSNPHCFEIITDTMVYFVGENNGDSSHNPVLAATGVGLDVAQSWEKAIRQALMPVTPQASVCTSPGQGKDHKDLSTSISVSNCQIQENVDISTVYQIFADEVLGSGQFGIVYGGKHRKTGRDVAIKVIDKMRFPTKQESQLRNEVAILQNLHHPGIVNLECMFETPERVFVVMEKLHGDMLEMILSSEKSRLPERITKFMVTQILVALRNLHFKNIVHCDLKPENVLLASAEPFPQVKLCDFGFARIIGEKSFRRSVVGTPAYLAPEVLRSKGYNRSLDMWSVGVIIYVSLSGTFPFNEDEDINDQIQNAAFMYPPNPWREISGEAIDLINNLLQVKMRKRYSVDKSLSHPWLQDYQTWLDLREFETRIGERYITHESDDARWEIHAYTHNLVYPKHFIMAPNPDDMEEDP

[4] = molecular target: Vascular endothelial growth factor receptor 2 (Homo sapiens, UniProt P35968); assay: Inhibition of KDR (unknown origin) after 60 mins by TR-FRET assay
[5] = molecular target: Cyclin-dependent kinase 7 (Homo sapiens, UniProt P50613); assay: Inhibition of CDK7 (unknown origin) after 60 mins by TR-FRET assay
[6] = molecular target: Platelet-derived growth factor receptor alpha (Homo sapiens, UniProt P16234); assay: Inhibition of PDGFRA (unknown origin) after 60 mins by TR-FRET assay
[7] = molecular target: Insulin-like growth factor 1 receptor (Homo sapiens, UniProt P08069); assay: Inhibition of IGF1R (unknown origin) after 60 mins by TR-FRET assay
Activated CDC42 kinase 1 = Activated CDC42 kinase 1 (Homo sapiens, UniProt Q07912); assay: Inhibition of TNK2 (unknown origin) after 60 mins by TR-FRET assay
[8] = molecular target: Hepatocyte growth factor receptor (Homo sapiens, UniProt P08581); assay: Inhibition of c-MET (unknown origin) after 60 mins by TR-FRET assay
[9] = molecular target: ALK tyrosine kinase receptor (Homo sapiens, UniProt Q9UM73); assay: Inhibition of ALK (unknown origin) after 60 mins by TR-FRET assay

| IC50 (Insulin receptor) | IC50 [1] | IC50 [2] | IC50 [3] | IC50 [4] | IC50 [5] | IC50 [6] | IC50 [7] | IC50 (Activated CDC42 kinase 1) | IC50 [8] | IC50 [9] | SMILES |
| --- | --- | --- | --- | --- | --- | --- | --- | --- | --- | --- | --- |
| 2.13 µM | 0.699 µM | 8.52 µM | > 10 µM | 3.35 µM | > 10 µM | 5.59 µM | 6.02 µM | 1.33 µM | > 10 µM | > 10 µM | CC1(C)OCC(=O)Nc2cc(Nc3nc(NCC(F)(F)F)c4occc4n3)ccc21 |
| – | 7.79 µM | > 10 µM | > 10 µM | > 10 µM | > 10 µM | > 10 µM | > 10 µM | 3.46 µM | > 10 µM | 7.63 µM | FC(F)(F)CNc1nc(Nc2ccc3cn[nH]c3c2)nc2ccoc12 |
| > 10 µM | – | > 10 µM | > 10 µM | – | > 10 µM | > 10 µM | > 10 µM | 1.32 µM | > 10 µM | – | Cc1n[nH]c2cc(Nc3nc(NC4CC4)c4occc4n3)ccc12 |
| 3.48 µM | 3.7 µM | > 10 µM | > 10 µM | > 10 µM | > 10 µM | > 10 µM | > 10 µM | 4.02 µM | > 10 µM | > 10 µM | FC(F)(F)CNc1nc(Nc2ccc(N3CCOCC3)c(Cl)c2)nc2ccoc12 |
